Where two headings read alike, the source gives them in different places.
Columns and labels:
[1] = system: CTC-ITB-01 cells; experiment: Clonogenic assay of CTC-ITB-01 cells; assay type: cell-based, human; details: CTC-ITB-01, two weeks of treatment
Protocol: (§1) Cells were seeded at a density of 1–2×10^3 cells/well in a 6-well plate and treated with increasing concentrations of the X compounds for 14–21 days. Medium and compounds were renewed every 7 days. The experiments were terminated by fixing the cells with methanol and the colonies formed were visualized after staining with 0.5% crystal violet (w/v) in 20% methanol (v/v). Plates were photographed and the area covered by the colonies was calculated using the ColonyArea Plugin for Fiji (RRID:SCR_003070).[20]

[2] = molecular target: T1, AHR (Homo sapiens, UniProt P35869); experiment: AHR luciferase reporter assay in HAHLH cells; assay type: cell-based; details: 8 h; for EC50: % of maximal luciferase activity with dioxin 10 nM, read-out: EC50 AHR transactivation
T1 construct: endogenous in cells; host or cells: HAHLH (HeLa with XRE-luciferase reporter)
T1 sequence (P35869 11-848): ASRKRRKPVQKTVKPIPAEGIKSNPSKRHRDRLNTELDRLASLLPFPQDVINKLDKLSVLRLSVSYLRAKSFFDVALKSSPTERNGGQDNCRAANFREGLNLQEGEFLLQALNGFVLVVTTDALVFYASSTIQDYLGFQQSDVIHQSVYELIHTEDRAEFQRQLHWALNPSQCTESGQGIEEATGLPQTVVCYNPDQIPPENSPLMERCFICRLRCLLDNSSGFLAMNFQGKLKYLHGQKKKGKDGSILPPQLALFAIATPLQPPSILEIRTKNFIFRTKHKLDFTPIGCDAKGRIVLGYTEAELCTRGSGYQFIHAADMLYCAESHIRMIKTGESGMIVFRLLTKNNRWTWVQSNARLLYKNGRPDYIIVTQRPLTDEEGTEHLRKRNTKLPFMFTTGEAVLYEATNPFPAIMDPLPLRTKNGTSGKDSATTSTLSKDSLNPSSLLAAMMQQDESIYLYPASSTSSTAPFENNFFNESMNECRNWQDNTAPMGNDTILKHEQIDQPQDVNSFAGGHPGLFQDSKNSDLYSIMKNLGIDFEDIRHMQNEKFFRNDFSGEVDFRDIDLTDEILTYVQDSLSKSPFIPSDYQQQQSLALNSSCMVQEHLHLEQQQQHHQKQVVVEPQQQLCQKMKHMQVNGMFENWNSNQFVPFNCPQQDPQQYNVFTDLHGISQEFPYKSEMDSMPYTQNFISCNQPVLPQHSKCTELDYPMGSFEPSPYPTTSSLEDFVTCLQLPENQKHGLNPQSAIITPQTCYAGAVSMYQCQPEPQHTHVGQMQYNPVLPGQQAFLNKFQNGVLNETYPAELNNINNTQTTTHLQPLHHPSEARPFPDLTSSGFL
Excerpt: To characterize the chemical induced AHR activity, we used the already established HAHLH reporter cell lines obtained by stably expression of HeLa cells with the dioxin-responsive gene XRE(TnGCGTG)3-tata-luciferase-Luc-hygromycin plasmid.[29] The reporter HELN hERα cell line was obtained by transfecting human HeLa cells with the ERE-responsive gene ERE-βGlobin-luciferase-Luc-neomycin and the pSG5-hERα-puromycin plasmids as previously described.[59] To determine the action of the chemical on AHR and hERα activity, cells were seeded at a density of 50,000 cells per well in 96-well white opaque tissue culture plates (Greiner CellStar) in 150 μL of Dulbecco’s Modified Eagle Medium: Nutrient Mixture F-12 (DMEM/F- 12) without phenol red and 1 g/L glucose and supplemented with 5% stripped fetal bovine serum, 100 units/mL of penicillin, 100 μg/mL of streptomycin (test medium). Twenty-four hours later, chemicals to be tested were added at 4x concentration in culture medium, and cells were incubated at 37 °C for 8 h (HAhLH cells) or 24 h (HELN hERα cells). At the end of the incubation period, culture medium was replaced with test medium containing 0.3 mM luciferin and luciferase activity was measured for 2 s in intact living cells using a MicroBeta Wallac luminometer (PerkinElmer). Tests were performed in quadruplicate at 4x concentration in the same medium in at least 4 independent experiments. Results were expressed as % of the maximal luciferase activity. […] Effective concentration (ECs) for a given compound, EC50 is defined as the concentration inducing 50% of its maximal effect. The EC50 values were calculated including the adjustment for the basal activity of the cell line.

[3] = system: MCF-7 luc D538G; experiment: Clonogenic assay (clonal expansion), MCF-7 cells with D538G ER mutation; assay type: cell-based; details: Homo sapiens, MCF7, 336 h
Protocol: as §1

[4] = system: PDxO#28; experiment: Organoid viability, CellTiter-Glo 3D; assay type: cell-based, human; details: PDxO#28 in 3D Matrigel, 7 days, increasing doses; same results in PDO#268 and PDO#480
Excerpt: Organoids were generated from patients’ samples and from patient-derived xenograft (PDX) tumors, as previously described.[25] PDX were derived from BCRO#28, an ER^+ breast cancer sample collected from a treatment naive patient. PDO#268 was derived from BCRO#268, an ER^+ breast cancer sample collected from treatment naive patient. PDO#480 was derived from BCRO#480, an ER^+ breast cancer sample collected from a patient subjected to chemotherapy in neo-adjuvant setting. Briefly, tumors freshly explanted from mice were mechanically shredded, digested with collagenase (Merck) and filtered through a 100 μm strainer. Digested material (isolated cells and small cell clusters) was centrifuged and embedded in 3D-matrix drops (reduced growth factor Basement Membrane Extract, BME, R&D systems), then overlaid with breast cancer organoid medium.[25] For 3D survival curves under treatment, organoids were embedded in BME drops and, after 24 - 48 h, drugs were added. Fresh drug-containing medium was replaced on day 4. On day 7 of treatment, CellTiter-Glo 3D Cell Viability Assay (Promega) was added and luminescent signal from viable organoids was recorded on Infinite M1000 Pro instrument (Tecan).

[5] = system: MCF-7 luc Y537S; experiment: Clonogenic assay (clonal expansion), MCF-7 cells with Y537S ER mutation; assay type: cell-based; details: Homo sapiens, MCF7, 336 h
Protocol: as §1

[6] = read-out: IC50 clonal expansion, Figure 1B, MCF-7 luc D538G, absence of E2, 14 days
[7] = read-out: IC50 clonal expansion, Figure 1C, MCF-7 luc D538G + 10 nM E2, 14 days

SMILES | inhibition of clonal expansion compared to fulvestrant [1] | AHR transcriptional activity (reporter), in words [2] | EC50 [2] [nM] | IC50 [3, 6] [nM] | IC50 [3, 7] [nM] | IC50 ([3]; read-out: IC50 clonal expansion, Figure 1D, MCF-7 luc D538G, absence of E2, 14 days) [nM] | IC50 ([3]; read-out: IC50 clonal expansion, Figure 1E, MCF-7 luc D538G + 10 nM E2, 14 days) [nM] | organoid viability (survival) [4] | IC50 ([5]; read-out: IC50 clonal expansion, Figure 1B, MCF-7 luc Y537S, absence of E2, 14 days) [nM] | IC50 ([5]; read-out: IC50 clonal expansion, Figure 1C, MCF-7 luc Y537S + 10 nM E2, 14 days) [nM] | IC50 ([5]; read-out: IC50 clonal expansion, Figure 1D, MCF-7 luc Y537S, absence of E2, 14 days) [nM] | IC50 ([5]; read-out: IC50 clonal expansion, Figure 1E, MCF-7 luc Y537S + 10 nM E2, 14 days) [nM]
Fc1ccc(-c2cn3cc(C(F)(F)F)cc(Cl)c3n2)cc1 [X15695] | about three orders of magnitude more potent | potency that surpassed that of the classical AHR ligand dioxin | 0.14 | 11.4 | 5.34 | 11.4 | 5.34 | significantly reduced survival in a dose-dependent manner | 7.82 | 6.41 | 7.82 | 6.41
Cc1cc(Cl)c2nc(-c3ccc(F)cc3)cn2c1 [X19724] |  | only modest enhancement | 1.37 | 324 | 31.6 |  |  |  |  |  |  | 
Cc1cc(Cl)c2nc(-c3ccccc3)cn2c1 [X19728] |  | only modest enhancement | 3.94 | 74.4 | 48 |  |  |  |  |  |  | 
